Measurements: patent US7872004B2, “6-(heterocyclyl-substituted benzyl)-4-oxoquinoline compound and use thereof as HIV integrase inhibitor” (Japan Tobacco Inc., priority 2006, dated 2011)

Biological target: T1, HIV integrase (Human immunodeficiency virus type 1 group M subtype B, UniProt P12497, F1332H)
T1 construct: HIV integrase full length gene; made in house; host or cells: Escherichia coli BL21(DE3)
Experiment: Determination of enzyme (HIV integrase) inhibitory activity
Format: biochemical, HIV (Human Immunodeficiency Virus (type 1))
Settings: recombinant integrase protein (F185H), strand transfer plate assay, absorbance at 450 nm
From the text: The following explains evaluation methods of the HIV integrase inhibitory activity of the compound of the present invention.
(i) Construction of Recombinant Integrase Gene Expression System
HIV integrase full length gene (J. Virol., 67, 425-437 (1993)) in which phenylalanine at codon 185 was substituted by histidine, was inserted between the restriction enzyme NdeI and XhoI sites of plasmid pET21a(+) (Novagen), whereby an integrase expression vector pET21a-IN-F185H was constructed.
(ii) Production and Purification of Integrase Protein
Escherichia coli recombinant BL21(DE3) transformed with plasmid pET21a-IN-F185H obtained in (i) was shake cultured at 30° C. in a liquid medium containing ampicillin. When the culture reached the logarithmic growth phase, isopropyl-β-D-thiogalactopyranoside was added to promote expression of integrase gene. The culture was continued for 3 hr to promote accumulation of the integrase protein. The recombinant E. coli was collected in pellets by centrifugal separation and preserved at −80° C.
The E. coli was suspended in Lysis buffer ([…] HEPES (pH 7.5), 5 mM DTT, 10 mM CHAPS, 10% glycerol) containing 1M sodium chloride and subjected to repeat pressurization and depressurization for rupture, and centrifugal separation at 4° C., 40,000×g, 60 min to recover a water-soluble fraction (supernatant). This was diluted 10-fold with Lysis buffer free of sodium chloride, mixed with SP-Sepharose (GE healthcare Bioscience) and stirred at 4° C. for 60 min to allow adsorption of integrase protein to the resin. The resin was washed with Lysis buffer containing 100 mM sodium chloride and the integrase protein was eluted with Lysis buffer containing 1M sodium chloride.
The eluted integrase protein solution was subjected to a Superdex 75 (GE healthcare Bioscience) column for gel filtration. The protein was eluted with Lysis buffer containing 1M sodium chloride.
The obtained fractions of the integrase protein were collected and preserved at −80° C.
(iii) Preparation of DNA Solution
The following DNA synthesized by Greiner or FASMAC was dissolved in TE buffer (10 mM Tris-hydrochloric acid (pH 8.0), 1 mM EDTA) and mixed with donor DNA, target DNA, and each complementary strand (+ and − strands) to 1 μM. The mixture was heated at 95° C. for 5 min, 80° C. for 10 min, 70° C. for 10 min, 60° C. for 10 min, 50° C. for 10 min and 40° C. for 10 min and kept at 25° C. to give a double stranded DNA, which was used for the test.
(iv) Determination of Enzyme (HIV Integrase) Inhibitory Activity
The donor DNA was diluted with TE buffer to 10 nM (or 5 nM), of which 50 μl was added to each well of streptavidin-coated microtiter plate (Roche) and allowed to adsorb at 37° C. for 60 min. The plate was washed with phosphate buffer (Dulbecco's PBS, Sanko Junyaku Co., Ltd.) containing 0.1% Tween 20 and phosphate buffer. Then, an enzyme reaction mixture (70 μl), a test substance (10 μl) diluted with the enzyme reaction mixture and 100 μg/ml (or 64 μg/ml (2 μM)) integrase protein (10 μl) were added to each well and reacted at 37° C. for 60 min.
Composition of the enzyme reaction mixture: 30 mM MOPS (3-morpholinopropanesulfonic acid), 5 mM magnesium chloride, 3 mM DTT (dithiothreitol), 0.1 mg/ml BSA (bovine serum albumin), 5% glycerol, 10% DMSO (dimethyl sulfoxide), 0.01% Tween 20.
Then, 50 nM (or 25 nM) target DNA (10 μl) was added, reacted at 37° C. for 10 min and washed with phosphate buffer containing 0.1% Tween 20 to stop the reaction.
Then, 100 mU/ml peroxidase labeled anti-digoxigenin antibody solution (Roche, 100 μl) was added, and the mixture was reacted at 37° C. for 60 min, followed by washing with phosphate buffer containing 0.1% Tween 20.
A peroxidase color solution (Bio Rad, 100 μl) was added and allowed to react at room temperature for 4 min (or 3 min). The color reaction was stopped by adding IN sulfuric acid (100 μl). The absorbance at 450 nm was measured. […]

Structure (SMILES)	IC50
CCc1cc2c(cc1Cc1cc(N3CCOCC3)cc(Cl)c1F)c(=O)c(C(=O)O)cn2[C@H](CO)COC [Example 20, 6-[3-chloro-2-fluoro-5-(morpholin-4-yl)benzyl]-7-ethyl-1-[(R)-2-hydroxy-1-(methoxymethyl)ethyl]-4-oxo-1,4-dihydroquinoline-3-carboxylic acid]	< 10 nM
COc1cc2c(cc1Cc1cc(N3CCCS3(=O)=O)cc(Cl)c1F)c(=O)c(C(=O)O)cn2[C@H](CO)C(C)C [Example 21, 6-[3-chloro-5-(1,1-dioxoisothiazolidin-2-yl)-2-fluorobenzyl]-1-((S)-1-hydroxymethyl-2-methylpropyl)-7-methoxy-4-oxo-1,4-dihydroquinoline-3-carboxylic acid]	< 10 nM
COC[C@@H](CO)n1cc(C(=O)O)c(=O)c2cc(Cc3cc(N4CCOCC4)cc(Cl)c3F)c(OC)cc21 [Example 22, 6-[3-chloro-2-fluoro-5-(morpholin-4-yl)benzyl]-1-[(R)-2-hydroxy-1-(methoxymethyl)ethyl]-7-methoxy-4-oxo-1,4-dihydroquinoline-3-carboxylic acid]	< 10 nM
CCc1cc2c(cc1Cc1cc(N3CCOCC3)cc(Cl)c1F)c(=O)c(C(=O)O)cn2[C@H](CO)C(C)C [Example 23, 6-[3-chloro-2-fluoro-5-(morpholin-4-yl)benzyl]-7-ethyl-1-((S)-1-hydroxymethyl-2-methylpropyl)-4-oxo-1,4-dihydroquinoline-3-carboxylic acid]	< 10 nM
CCc1cc2c(cc1Cc1cc(N3CCCC3=O)cc(Cl)c1F)c(=O)c(C(=O)O)cn2[C@H](CO)C(C)C [Example 24, 6-[3-chloro-2-fluoro-5-(2-oxopyrrolidin-1-yl)benzyl]-7-ethyl-1-((S)-1-hydroxymethyl-2-methylpropyl)-4-oxo-1,4-dihydroquinoline-3-carboxylic acid]	10 to 100 nM
COc1cc2c(cc1Cc1cc(N3CCCC3=O)c(F)c(Cl)c1F)c(=O)c(C(=O)O)cn2[C@H](CO)C(C)C [Example 25, 6-[3-chloro-2,4-difluoro-5-(2-oxopyrrolidin-1-yl)benzyl]-1-((S)-1-hydroxymethyl-2-methylpropyl)-7-methoxy-4-oxo-1,4-dihydroquinoline-3-carboxylic acid]	< 10 nM
CCc1cc2c(cc1Cc1cc(N3CCCC3=O)c(F)c(Cl)c1F)c(=O)c(C(=O)O)cn2[C@H](CO)C(C)C [Example 26, 6-[3-chloro-2,4-difluoro-5-(2-oxopyrrolidin-1-yl)benzyl]-7-ethyl-1-((S)-1-hydroxymethyl-2-methylpropyl)-4-oxo-1,4-dihydroquinoline-3-carboxylic acid]	< 10 nM
COc1cc2c(cc1Cc1cc(N3CCSCC3)cc(Cl)c1F)c(=O)c(C(=O)O)cn2[C@H](CO)C(C)C [Example 27, 6-[3-chloro-2-fluoro-5-(thiomorpholin-4-yl)benzyl]-1-((S)-1-hydroxymethyl-2-methylpropyl)-7-methoxy-4-oxo-1,4-dihydroquinoline-3-carboxylic acid]	< 10 nM
COc1cc2c(cc1Cc1cc(N3CCOCC3)cc(Cl)c1F)c(=O)c(C(=O)O)cn2[C@H](CO)[C@H](C)OC [Example 28, 6-[3-chloro-2-fluoro-5-(morpholin-4-yl)benzyl]-1-((1R,2S)-1-hydroxymethyl-2-methoxypropyl)-7-methoxy-4-oxo-1,4-dihydroquinoline-3-carboxylic acid]	< 10 nM
COCC[C@@H](CO)n1cc(C(=O)O)c(=O)c2cc(Cc3cc(N4CCOCC4)cc(Cl)c3F)c(OC)cc21 [Example 29, 6-[3-chloro-2-fluoro-5-(morpholin-4-yl)benzyl]-1-((S)-1-hydroxymethyl-3-methoxypropyl)-7-methoxy-4-oxo-1,4-dihydroquinoline-3-carboxylic acid]	< 10 nM
COc1cc2c(cc1Cc1cc(N3CCC(O)CC3)cc(Cl)c1F)c(=O)c(C(=O)O)cn2[C@H](CO)C(C)C [Example 32, 6-[3-chloro-2-fluoro-5-(4-hydroxypiperidin-1-yl)benzyl]-1-((S)-1-hydroxymethyl-2-methylpropyl)-7-methoxy-4-oxo-1,4-dihydroquinoline-3-carboxylic acid]	< 10 nM
CCc1cc2c(cc1Cc1cc(N3CCOCC3)cc(Cl)c1F)c(=O)c(C(=O)O)cn2[C@H](CO)[C@@H](C)OC [Example 34, 6-[3-chloro-2-fluoro-5-(morpholin-4-yl)benzyl]-7-ethyl-1-((1R,2R)-1-hydroxymethyl-2-methoxypropyl)-4-oxo-1,4-dihydroquinoline-3-carboxylic acid]	< 10 nM
CCc1cc2c(cc1Cc1cc(N3CCOCC3)cc(Cl)c1F)c(=O)c(C(=O)O)cn2[C@H](CO)[C@H](C)OC [Example 35, 6-[3-chloro-2-fluoro-5-(morpholin-4-yl)benzyl]-7-ethyl-1-((1R,2S)-1-hydroxymethyl-2-methoxypropyl)-4-oxo-1,4-dihydroquinoline-3-carboxylic acid]	10 to 100 nM
COc1cc2c(cc1Cc1cc(-c3ccccn3)cc(Cl)c1F)c(=O)c(C(=O)O)cn2[C@H](CO)C(C)C [Example 36, 6-[3-chloro-2-fluoro-5-(pyridin-2-yl)benzyl]-1-((S)-1-hydroxymethyl-2-methylpropyl)-7-methoxy-4-oxo-1,4-dihydroquinoline-3-carboxylic acid]	< 10 nM
COc1cc2c(cc1Cc1cc(-c3nccs3)cc(Cl)c1F)c(=O)c(C(=O)O)cn2[C@H](CO)C(C)C [Example 37, 6-[3-chloro-2-fluoro-5-(thiazol-2-yl)benzyl]-1-((S)-1-hydroxymethyl-2-methylpropyl)-7-methoxy-4-oxo-1,4-dihydroquinoline-3-carboxylic acid]	10 to 100 nM
CCO[C@H](C)[C@@H](CO)n1cc(C(=O)O)c(=O)c2cc(Cc3cc(N4CCOCC4)cc(Cl)c3F)c(CC)cc21 [Example 38, 6-[3-chloro-2-fluoro-5-(morpholin-4-yl)benzyl]-1-[(1R,2R)-2-ethoxy-1-(hydroxymethyl)propyl]-7-ethyl-4-oxo-1,4-dihydroquinoline-3-carboxylic acid]	< 10 nM
CCOC[C@@H](CO)n1cc(C(=O)O)c(=O)c2cc(Cc3cc(N4CCCC4=O)cc(Cl)c3F)c(OC)cc21 [Example 39, 6-[3-chloro-2-fluoro-5-(2-oxopyrrolidin-1-yl)benzyl]-1-((R)-1-ethoxymethyl-2-hydroxyethyl)-7-methoxy-4-oxo-1,4-dihydroquinoline-3-carboxylic acid]	< 10 nM
CCO[C@H](C)[C@@H](CO)n1cc(C(=O)O)c(=O)c2cc(Cc3cc(N4CCCC4=O)cc(Cl)c3F)c(CC)cc21 [Example 40, 6-[3-chloro-2-fluoro-5-(2-oxopyrrolidin-1-yl)benzyl]-1-[(1R,2R)-2-ethoxy-1-(hydroxymethyl)propyl]-7-ethyl-4-oxo-1,4-dihydroquinoline-3-carboxylic acid]	10 to 100 nM
CCc1cc2c(cc1Cc1cc(N3CCCC3=O)cc(Cl)c1F)c(=O)c(C(=O)O)cn2[C@H](CO)[C@@H](C)OC [Example 41, 6-[3-chloro-2-fluoro-5-(2-oxopyrrolidin-1-yl)benzyl]-7-ethyl-1-((1R,2R)-1-hydroxymethyl-2-methoxypropyl)-4-oxo-1,4-dihydroquinoline-3-carboxylic acid]	10 to 100 nM
